Columns and labels:
mouse bones = assay: Bone density (DEXA or ultrasound); type: in vivo; settings: administered versus non-administered mice
Protocol: This Example tested bone density for mice administered with OK-1 and mice without administration of OK-1 in order to investigate the effect of OK-1 on mouse bones. Bone density was measured using DEXA or ultrasound.
This Example tested bone density for mice administered with C-82 and mice without administration of C-82 in order to investigate the effect of C-82 on mouse bones. Bone density was measured using DEXA or ultrasound.

sarcopenia mouse models [1] = assay: Brain function behavioral tests (Barnes maze, fear conditioning, object recognition, open field, social behavior); type: in vivo; settings: administered versus non-administered sarcopenia mouse models
Protocol: (§1) Mouse models were divided into two groups. Short term memory, long term memory, depression, activity level, social interaction, cognitive ability, etc., were tested using a Barnes maze, fear conditioning test, object recognition test, open field test, social behavior test (Crawley version), etc. on sarcopenia mouse models administered with OK-1 and sarcopenia mouse models without administration of OK-1.
These tests are described in http://www.fujita-hu.ac.jp/ to smedsci/behaviorcore/equipment/index.html, Barnes maze, a useful task to assess spatial reference memory in the mice (doi: 10.1038/nprot.2007.390), etc., which can be suitably referenced and practiced.
as §1, with “C-82” for “OK-1”, “C-82.” for “OK-1.”
These tests are described in http://www.fujita-hu.ac.jp/to smedsci/behaviorcore/equipment/index.html, Barnes maze, a useful task to assess spatial reference memory in the mice (doi: 10.1038/nprot.2007.390), etc., which can be suitably referenced and practiced.

C2C12 cells = assay: Gene expression levels in treated cultured cells; type: cell-based, mouse
Protocol: Mouse striated muscle derived cells, i.e., C2C12 cells, were cultured and treated with OK-1, ICG-001, or C-82. Gene expression levels of cells treated with OK-1, ICG-001, or C-82, and untreated cells are compared.

[2] = test system: muscle of mice (C57BL/6J) with exercise; assay: Gene analysis (RNA-seq, GSEA) of muscle of administered mice with exercise; type: in vivo, mouse
Protocol: Gene analysis (RNA-seq) in OK-1 administered mice (C57BL/6J) with exercise was performed by the same method as Example 2.
The category of genes with differential expression identified in Example 5 was analyzed by the same method (GSEA) as Example 3 (FIG. 6).

sarcopenia mouse models [3] = assay: Biochemical test on organ (creatine, IL-6, cholesterol etc. concentrations); type: in vivo; settings: administered versus non-administered sarcopenia mouse models
Protocol: Mouse models were divided into two groups. The creatine concentration, IL-6 concentration, and cholesterol concentration were measured for sarcopenia mouse models administered with OK-1 and sarcopenia mouse models without administration of OK-1.
Mouse models were divided into two groups. The creatine concentration, IL-6 concentration, cholesterol concentration, UN (urea nitrogen is a biomarker that can predict the dysfunction of kidney or urinary system) concentration, and UA (uric acid is a biomarker for kidney or liver function) concentration were measured for sarcopenia mouse models administered with C-82 and sarcopenia mouse models without administration of C-82.

sarcopenia mouse models [4] = assay: Cardiac function test (echocardiogram and treadmill); type: in vivo; settings: administered versus non-administered sarcopenia mouse models
Protocol: This Example used mouse models prepared in the Preparation Example.
Measurement can be taken using Kumamoto Mouse Clinic (KMC) of Kumamoto University.
Mouse models were divided into two groups. Cardiac function was tested for sarcopenia mouse models administered with OK-1 and sarcopenia mouse models without administration of OK-1. Cardiac function was tested and analyzed using an echocardiogram and treadmill.
Mouse models were divided into two groups. Cardiac function was tested for sarcopenia mouse models administered with C-82 and sarcopenia mouse models without administration of C-82. Cardiac function was tested and analyzed using an echocardiogram and treadmill.

sarcopenia mouse models [5] = assay: NTX (cross linked N-telopeptide of type I collagen) concentration; type: in vivo; settings: administered versus non-administered sarcopenia mouse models
Protocol: Mouse models were divided into two groups. The NTX (cross linked N-telopeptide of type I collagen) concentration was measured for sarcopenia mouse models administered with OK-1 and sarcopenia mouse models without administration of OK-1.
Mouse models were divided into two groups. The NTX (cross linked N-telopeptide of type I collagen) concentration was measured for sarcopenia mouse models administered with C-82 and sarcopenia mouse models without administration of C-82.

sarcopenia mouse models [6] = assay: Metabolic disease markers (LDH, ALT, TG, HDL-C, insulin, glucose, amylase, AST concentrations); type: in vivo; settings: administered versus non-administered sarcopenia mouse models
Protocol: (§2) Mouse models were divided into two groups. LDH concentration, ALT concentration, TG concentration, HDL-C concentration, insulin concentration, glucose concentration, amylase concentration, AST concentration, and ALT concentration were measured for sarcopenia mouse models administered with OK-1 and sarcopenia mouse models without administration of OK-1.
as §2, with “C-82” for “OK-1”, “C-82.” for “OK-1.”

P301S mouse models = assay: Tau phosphorylation, memory and brain atrophy in tauopathy model; type: in vivo; settings: P301S (FTDP-17) mouse model
[7] = test system: muscle of mice with/without exercise; assay: Collation of top 100 differentially expressed muscle genes with NIH MedlinePlus (related diseases); design: species or system mouse
Source text: Diseases associated with top 100 genes observed to have differential expression in mice with/without exercise were found by collation with NIH MedlinePlus (FIG. 8).

Compound | bone density (mouse bones) | short term memory, long term memory, depression, activity level, social interaction, cognitive ability (sarcopenia mouse models [1]) | gene expression levels versus untreated cells (C2C12 cells) | change in gene expression in muscles ([2]; C-82 administration, same method as Example 2) | kidney function and muscle (from creatine, IL-6, cholesterol, UN and UA concentrations) (sarcopenia mouse models [3]) | cardiac function (sarcopenia mouse models [4]) | osteoporosis (from NTX concentration) (sarcopenia mouse models [5]) | pancreatic function, liver function and salivary gland function (sarcopenia mouse models [6]) | phosphorylation of Tau, memory or brain atrophy (P301S mouse models) | diseases associated with the top 100 differentially expressed genes ([7]; C-82 administration, mice with/without exercise) | gene group associated with OK-1 by GSEA: genes regulating muscle genes with exercise ([2]; GSEA) | genes decreased (downregulated expression) significantly in muscle ([2]; OK-1 administration, p<0.05) [genes] | genes increased (upregulated expression) significantly in muscle ([2]; OK-1 administration, p<0.05) [genes] | gene group associated with OK-1: genes associated with muscle control with exercise ([2]; upstream transcription factors) | muscle (from creatine, IL-6 and cholesterol concentrations) (sarcopenia mouse models [3]) | gene group associated with OK-1: genes with change in muscle control with/without exercise, disease-associated ([7]; top 100 genes)
C[C@H]1[C@H]2N(C(=O)CN(C)N2C(=O)NCc2ccccc2)[C@@H](Cc2ccc(O)cc2)C(=O)N1Cc1cccc2cccnc12 [C-82, (6S,9S)—N-benzyl-6-(4-hydroxybenzyl)-2,9-dimethyl-4,7-dioxo-8-(quinolin-8-ylmethyl)hexahydro-2H-pyrazino[2,1-c][1,2,4]triazine-1(6H)-carboxamide] | bone density is improved | short term memory, long term memory, depression, activity level, social interaction, and cognitive ability are improved | change in gene expression similar to Example 2 | achieves the same result as OK-1 | kidney function and muscle improve | cardiac function is improved | osteoporosis is improved | pancreatic function, liver function, and salivary gland function are improved | suppression in phosphorylation of Tau and improvement in memory or brain atrophy are observed | achieves the same result as OK-1 |  |  |  |  |  | 
C[C@H]1[C@H]2N(C(=O)CN(C)N2C(=O)NCc2ccccc2)[C@@H](Cc2ccc(OP(=O)(O)O)cc2)C(=O)N1Cc1cccc2cccnc12 [OK-1] | bone density is improved | short term memory, long term memory, depression, activity level, social interaction, and cognitive ability are improved | change in gene expression similar to Example 2 |  |  | cardiac function is improved | osteoporosis is improved | pancreatic function, liver function, and salivary gland function are improved | suppression in phosphorylation of Tau and improvement in memory or brain atrophy are observed |  | ETS2, ETS1, EP300, RUNX2, SMAD3, SMAD4, E2F1, NOTCH1, TRP53, PAX6, SMAD1, SP1, SPI1, and NFKB1 | 631 | 145 | Jun, Ets1, Sp1, Ep300, Usf2, Fosl1, Nfkb1, Smad3, Srf, Junb, Runx2, Ets2, Etv4, Tgfb1, and Tgfb1i1 | muscle improves | Dsp, Krt17, Comp, Krt86, Krt81, Krt83, Krt14, Abca12, Tchh, Krt5, Dsg4, Lpl, Myh6, Tfap2a, Col1a1, Lepr, Fn1, Col1a2, Col6a1, Col3a1, Mmp2, Acta2, F13a1, Col6a2, and Cx3cr1

From patent US20230390296A1, “NOVEL TREATMENT AND PREVENTION OF SARCOPENIA-RELATED DISEASES” (KEIO UNIVERSITY, priority 2020, published 2023)
